Measured values taken from US9896718B2, “Herbicide tolerant cotton event pDAB4468.18.07.1” (Dow AgroSciences LLC, priority 2012, dated 2018).
Like-named read-outs stand apart in the source and are kept apart here.

How the values were obtained:
[1] = system: cotton event pDAB4468.18.07.1; experiment: Agronomic characterization in field trials with and without herbicide application; type: in vivo, Gossypium hirsutum; conditions: standard field application rates, 2010 field trials
Excerpt: The agronomic characteristics of cotton event pDAB4468.18.07.1 were quantified in field trials conducted across geographically different locations throughout the cotton belt in 2010. These studies compared the agronomic performance of cotton event pDAB4468.18.07.1 (with and without applications of the herbicides 2,4-D and glufosinate) to the non-transgenic near-isoline control, Coker 310. No agronomically meaningful unintended differences were observed between cotton event pDAB4468.18.07.1 and the Coker 310 control plants. […] Additionally, the agronomic performance of cotton event pDAB4468.18.07.1 was not altered as a result of the application of the herbicides, 2,4-D and glufosinate, as compared to the cotton event pDAB4468.18.07.1 plants which were not sprayed with the herbicide treatments. […]
Seeds of cotton event pDAB4468.18.07.1 and seeds of the near-isoline control line, Coker 310, were planted at a rate of 80 seeds per 20 ft row with a row spacing of 34-38 inches (86.36 cm-96.52 cm). […] The measured agronomic characteristics were equivalent for cotton event pDAB4468.18.07.1 as compared to the Coker 310 near-isoline control plants for all of the agronomic characteristics measured and statistically analyzed. […]

non-transformed cotton = conditions: rates much lower than the lowest rate tested (1120 g ae/ha); known; cited from earlier work
[2] = system: cotton event pDAB4468.18.07.1; experiment: Tolerance to 2,4-D in field trials (percent visual injury after postemergence application); type: in vivo, Gossypium hirsutum; conditions: for Percent visual injury: postemergence, 2-4 leaf cotton, field
Method: The application of 2,4-D on cotton plants at this stage of development represents a herbicide application timing typically utilized to achieve satisfactory weed control by cotton growers.
2,4-D tolerance was measured by assessing cotton plants for injury at 0-1 day after application (DAA), 7-8 DAA, 12-16 DAA, and 24-32 DAA. Measurements for the 0-1 day time increment were taken from 6-24 hours after the application. […] The ratings were a composite score for any herbicide symptomology including epinasty, chlorosis, leaf necrosis and plant death. Herbicide symptomology present at 0-1 DAA was primarily epinasty and symptoms at later evaluations were primarily chlorosis and necrosis.
(§1) Field trials were conducted at eleven locations across the United States in typical cotton producing areas of Alabama, Arkansas, California, Georgia, Louisiana, Mississippi, North Carolina, South Carolina, and Tennessee. Trials were designed with four replications per treatment. Each replication was separated by a bare-soil alley 10-15 feet wide. Plot size for individual treatments was 2 rows by 20 feet long with rows typically spaced 36-40 inches apart. Experimental treatments consisted of cotton event pDAB4468.18.07.1 sprayed with 2,4-D amine (Weedar 64™, NuFarm, Burr Ridge, Ill.) at either 0, 1120, 2240, or 4480 grams acid equivalent per hectare (g ae/ha) applied in 15 gallons per acre of final spray solution. A non-transformed cotton comparator treatment was not included in these experiments since treatment with 2,4-D at rates much lower than the lowest rate tested (1120 g ae/ha) are known to result in plant death.

[3] = system: cotton event pDAB4468.18.07.1; conditions: for % Injury: cotton event pDAB4468.18.07.1, 3 leaf stage
Method: The tolerance of cotton event pDAB4468.18.07.1 to postemergence applications of the pyridyloxyacetic acid herbicides, triclopyr and fluroxypyr, was studied in greenhouse trials. Herbicide tolerance was assessed following a single postemergence application of triclopyr or fluroxypyr.
Seeds from cotton event pDAB4468.18.07.1 were heat treated in a water bath at 82.5° C. for 1 minute and then planted in metro mix 360 media and grown in a greenhouse. The temperatures in the greenhouse averaged 27° C. and the photoperiod was set at 16 hours of light and eight hours of dark, with maximum light intensity. Plants were allowed to grow until the 3 leaf stage of development and a non-randomized study was conducted with three replications and three treatments for each herbicide. Plants were sprayed in a track sprayer calibrated to deliver 187 L/ha of the commercial formulations of triclopyr (Garton 4™, Dow AgroSciences, Indianapolis, Ind.) and fluroxypyr (Starane™, Dow AgroSciences, Indianapolis, Ind.). A non-transformed Coker 310 variety of cotton was used as a negative control. Visual injury assessment was taken 3 DAA (days after application) and 11 DAA comparing each rate of herbicide. Injury was assessed visually as percentage of epinastic cotton-plant foliage using a linear percentage scale […] where 0% represents no visible herbicide injury and 100% represents plant death.

[4] = system: non-transformed Coker 310 variety of cotton; experiment: Tolerance to triclopyr and fluroxypyr in greenhouse trials (percent visual injury), negative control plants; type: in vivo; conditions: 3 leaf stage
Method: Seeds from cotton event pDAB4468.18.07.1 were heat treated in a water bath at 82.5° C. for 1 minute and then planted in metro mix 360 media and grown in a greenhouse. The temperatures in the greenhouse averaged 27° C. and the photoperiod was set at 16 hours of light and eight hours of dark, with maximum light intensity. Plants were allowed to grow until the 3 leaf stage of development and a non-randomized study was conducted with three replications and three treatments for each herbicide. Plants were sprayed in a track sprayer calibrated to deliver 187 L/ha of the commercial formulations of triclopyr (Garton 4™, Dow AgroSciences, Indianapolis, Ind.) and fluroxypyr (Starane™, Dow AgroSciences, Indianapolis, Ind.). A non-transformed Coker 310 variety of cotton was used as a negative control. Visual injury assessment was taken 3 DAA (days after application) and 11 DAA comparing each rate of herbicide. Injury was assessed visually as percentage of epinastic cotton-plant foliage using a linear percentage scale (1-100%) where 0% represents no visible herbicide injury and 100% represents plant death.

[5] = system: cotton event pDAB4468.18.07.1; experiment: Tolerance to glufosinate in field trials (percent visual injury after postemergence application); type: in vivo, Gossypium hirsutum; conditions: for Percent visual injury: postemergence, 6-8 leaf cotton, field
Method: Glufosinate tolerance was measured by assessing cotton plants for injury at 2-4 days after application (DAA), 7-9 DAA, 13-19 DAA and 22-29 DAA. […] The ratings were a composite score for any herbicide symptomology including chlorosis, leaf necrosis, stunting and plant death. Herbicide symptomology (where present) was primarily chlorosis and necrosis.
as §1, with “glufosinate ammonium (Ignite 280 SL™, Bayer, Research Triangle, N.C.)” for “2,4-D amine (Weedar 64™, NuFarm, Burr Ridge, Ill.)”, “542, 1084,” for “1120, 2240,”, “2168” for “4480”, “glufosinate” for “2,4-D”, “(542” for “(1120”, “would be expected” for “are known”

## CNC.O=C(O)COc1ccc(Cl)cc1Cl [2,4-D]
[1]
  agronomic performance of cotton event after herbicide application vs unsprayed plants: not altered
non-transformed cotton
  result of treatment of non-transformed cotton: plant death
[2]; 1120-4480 g ae/ha, with the exception of transient epinasty 0-1 DAA
  herbicide injury noted in the experiments: no agronomically-significant herbicide injury
[2]; 1120 g ae/ha, 0-1 DAA
  Percent visual injury: 5.0%
[2]; 1120 g ae/ha, 7-8 DAA
  Percent visual injury: 2.3%
[2]; 1120 g ae/ha, 12-16 DAA
  Percent visual injury: 1.1%
[2]; 1120 g ae/ha, 24-32 DAA
  Percent visual injury: 0.0%
[2]; 2240 g ae/ha, 0-1 DAA
  Percent visual injury: 11.7%
[2]; 2240 g ae/ha, 7-8 DAA
  Percent visual injury: 4.9%
[2]; 2240 g ae/ha, 12-16 DAA
  Percent visual injury: 2.7%
[2]; 2240 g ae/ha, 24-32 DAA
  Percent visual injury: 0.4%
[2]; 4480 g ae/ha (>4× rate required for broad spectrum weed control)
  crop injury beyond the 7-8 DAA evaluation interval: little crop injury
[2]; 4480 g ae/ha, 0-1 DAA
  Percent visual injury: 21.0%
[2]; 4480 g ae/ha, 7-8 DAA
  Percent visual injury: 15.1%
[2]; 4480 g ae/ha, 12-16 DAA
  Percent visual injury: 8.0%
[2]; 4480 g ae/ha, 24-32 DAA
  Percent visual injury: 2.2%

## Nc1c(Cl)c(F)nc(OCC(=O)O)c1Cl [Fluroxypyr, fluroxypyr]
[3]; in vivo
  level of herbicide to which tolerance is provided: up to 280 g ae/ha

## O=C(O)COc1nc(Cl)c(Cl)cc1Cl [Triclopyr, triclopyr]
[4]; 140 g ae/ha, 3 DAA
  % Injury: 33.8 a %
[4]; 140 g ae/ha, 11 DAA
  % Injury: 36.3 b %
[4]; 280 g ae/ha, 3 DAA
  % Injury: 33.8 a %
[4]; 280 g ae/ha, 11 DAA
  % Injury: 40.0 ab %
[4]; 560 g ae/ha, 3 DAA
  % Injury: 36.3 a %
[4]; 560 g ae/ha, 11 DAA
  % Injury: 48.8 a %
[3]; 3 DAA, greenhouse
  tolerance of the plants: moderate levels of tolerance
[3]; 140 g ae/ha, 3 DAA, greenhouse
  % Injury: 11.8 b %
[3]; 140 g ae/ha, 11 DAA, greenhouse
  % Injury: 3.0 a %
[3]; 280 g ae/ha, 3 DAA, greenhouse
  % Injury: 17.0 a %
[3]; 280 g ae/ha, 11 DAA, greenhouse
  % Injury: 6.3 a %
[3]; 560 g ae/ha, 3 DAA, greenhouse
  % Injury: 19.3 a %
[3]; 560 g ae/ha, 11 DAA, greenhouse
  % Injury: 3.5 a %
[3]; by 11 DAA, recovered from the initial epinastic response, greenhouse
  tolerance of the plants compared to the non-transformed control: robust tolerance

## CP(=O)(O)CCC(N)C(=O)O (stereo not shown) [glufosinate]
[5]; 542-2168 g ae/ha, with the exception of transient chlorosis at 2168 g ae/ha at 2-4 & 7-9 DAA
  herbicide injury noted in the experiments: no agronomically-significant herbicide injury
[5]; 542 g ae/ha, 2-4 DAA
  Percent visual injury: 3.1%
[5]; 542 g ae/ha, 7-9 DAA
  Percent visual injury: 2.3%
[5]; 542 g ae/ha, 13-19 DAA
  Percent visual injury: 0.1%
[5]; 542 g ae/ha, 22-29 DAA
  Percent visual injury: 0.1%
[5]; 1084 g ae/ha, 2-4 DAA
  Percent visual injury: 7.6%
[5]; 1084 g ae/ha, 7-9 DAA
  Percent visual injury: 4.8%
[5]; 1084 g ae/ha, 13-19 DAA
  Percent visual injury: 0.1%
[5]; 1084 g ae/ha, 22-29 DAA
  Percent visual injury: 0.0%
[5]; 2168 g ae/ha (>4× rate required for broad spectrum weed control)
  crop injury beyond the 7-9 DAA evaluation interval: little crop injury
[5]; 2168 g ae/ha, 2-4 DAA
  Percent visual injury: 14.8%
[5]; 2168 g ae/ha, 7-9 DAA
  Percent visual injury: 10.8%
[5]; 2168 g ae/ha, 13-19 DAA
  Percent visual injury: 2.2%
[5]; 2168 g ae/ha, 22-29 DAA
  Percent visual injury: 0.3%
[1]
  agronomic performance of cotton event after herbicide application vs unsprayed plants: not altered
